Consider 4 compounds from patent US20070225212A1, “Use of a peptide” (priority 1992, published 2007).

For assay [1], the system named is healthy volunteers. Particulars: peptide infused into healthy volunteers; cited from earlier work.
The subject of assay [2] is patients with NIDDM and secondary failure to sulfonylurea treatment. Kind of assay: Example 2: basal state and standard lunch study in patients with secondary failure to sulfonylurea treatment. The settings on record: for Insulinogenic index (integrated insulin/integrated glucose response): after ingestion of the meal; for Insulinogenic index (integrated insulin/integrated glucose response) / Blood glucose: GLP-1(7-36)amide 0.75 pmol/kg/min, glibenclamide 1 mg i.v., 8 NIDDM patients with sulfonylurea failure. In kind it is in vivo, human.

The test system of assay [3] is insulin treated obese NIDDM patients. The assay is described as follows: Example 1: standard test meal study, meal-related C-peptide response, glucagon response and IMIR. In kind it is in vivo, human. The settings on record: GLP-1(7-36)amide 0.75 pmol/kg/min infusion for 210 min, glibenclamide 1 mg i.v., 6 insulin treated obese NIDDM patients.
Assay [4] deals with isolated precultured rat pancreatic islets. Particulars: in the presence of glucose, dose-dependent; cited from earlier work.
For assay [5], the system named is diabetic as well as nondiabetic subjects. Particulars: cited from earlier work.
[6] abbreviates: basal state, 45 minutes after start of administration.

Ends that are not written are not given here.

With “GLP-1(7-36)amide: Peptide of formula I, His-Ala-Glu-Gly-Thr-...-Lys-Gly-Arg-X with X = NH2; fragment of glucagon-like peptide-1”, in assay [1], the plasma insulin result is on record as “significant rise in plasma insulin”. In addition, in assay [2], the “Insulinogenic index (integrated insulin/integrated glucose response)” value was 21.0 ± 7.2,. This compound returned a Blood glucose in assay [2] (setting [6]) of 5.1 ± 0.4 mmol/L.

Regarding `COc1ccc(Cl)cc1C(=O)NCCc1ccc(S(=O)(=O)NC(=O)NC2CCCCC2)cc1` [glibenclamide], the “Insulinogenic index (integrated insulin/integrated glucose response)” value in assay [2] is 10.6 ± 2.8,. In addition, in assay [2] (setting [6]), the “effect on blood glucose and C-peptide levels (in words)” value is recorded as “no significant effect on its own”; the Blood glucose was found to be 6.0 ± 0.3 mmol/L. The Glucagon response entry in assay [3] is on record as “no significant effect”.

“GLP-1(1-36)amide: amide of a fragment of GLP-1 comprising amino acid residues 1 to 36 (HDEFERHAEGTFTSDVSSYLEGQAAKEFIAWLVKGR-NH2; UniProt P01275 92-127, looked up, fragment)”: the insulin release entry in assay [4] is “stimulates insulin release”.

Take “GLP-1(7-37): Peptide of formula I with X = Gly-OH; residues 7 to 37 of GLP-1 (HAEGTFTSDVSSYLEGQAAKEFIAWLVKGRG-OH; UniProt P01275 98-128, looked up, fragment)”: in assay [5], the insulinotropic action entry was “has been demonstrated”.
